Laboratory results from patent US10479780B2, “Aminopyrazole derivatives” (Chugai Seiyaku Kabushiki Kaisha, priority 2015, dated 2019).

Tests used:
Format in all cases: biochemical
human Yes1 enzyme = molecular target: T1, human Yes1 enzyme (Homo sapiens, UniProt P07947); assay: Yes1 enzyme inhibitory activity (time-resolved fluorometry, biotinylated peptide phosphorylation); details: read-out: YES_IC50
T1 construct: made in house
In short: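 Inhibition was expressed against a compound-free control to give IC50, using TR-FRET read-out (Eu-cryptate anti-pTyr antibody, streptavidin-XL665).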

human Src enzyme = molecular target: T2, human Src enzyme (Homo sapiens, UniProt P12931); assay: Src enzyme inhibitory activity (time-resolved fluorometry, biotinylated peptide phosphorylation); details: read-out: SRC_IC50
T2 construct: purchased Carna Biosciences, Inc. 08-173
T2 sequence (P12931 whole entry): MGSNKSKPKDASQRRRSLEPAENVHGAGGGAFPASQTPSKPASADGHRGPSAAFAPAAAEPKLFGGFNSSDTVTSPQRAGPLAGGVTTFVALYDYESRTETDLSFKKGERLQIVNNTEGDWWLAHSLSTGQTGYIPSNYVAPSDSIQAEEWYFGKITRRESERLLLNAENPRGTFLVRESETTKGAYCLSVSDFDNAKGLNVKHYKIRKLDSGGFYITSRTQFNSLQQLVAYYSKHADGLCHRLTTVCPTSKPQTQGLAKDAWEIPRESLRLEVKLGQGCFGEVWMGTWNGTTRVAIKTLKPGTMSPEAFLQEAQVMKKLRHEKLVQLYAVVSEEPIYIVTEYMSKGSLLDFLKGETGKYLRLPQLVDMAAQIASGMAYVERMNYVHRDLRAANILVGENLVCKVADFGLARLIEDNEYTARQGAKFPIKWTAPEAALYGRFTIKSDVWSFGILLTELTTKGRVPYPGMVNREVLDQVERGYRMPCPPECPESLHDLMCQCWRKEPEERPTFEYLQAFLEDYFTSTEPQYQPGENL
In short: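 Compounds were tested for blocking tyrosine phosphorylation of a biotinylated peptide substrate by recombinant human Src. Phosphorylated product was quantified by time-resolved fluorometry using europium cryptate and XL665 conjugates, and IC50 was calculated against the compound-free control.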

human Lck enzyme = molecular target: T3, human Lck enzyme (Homo sapiens, UniProt P06239); assay: Lck enzyme inhibitory activity (time-resolved fluorometry, biotinylated peptide phosphorylation); details: read-out: LCK_IC50
T3 construct: purchased Carna Biosciences, Inc. 08-170
T3 sequence (P06239 whole entry): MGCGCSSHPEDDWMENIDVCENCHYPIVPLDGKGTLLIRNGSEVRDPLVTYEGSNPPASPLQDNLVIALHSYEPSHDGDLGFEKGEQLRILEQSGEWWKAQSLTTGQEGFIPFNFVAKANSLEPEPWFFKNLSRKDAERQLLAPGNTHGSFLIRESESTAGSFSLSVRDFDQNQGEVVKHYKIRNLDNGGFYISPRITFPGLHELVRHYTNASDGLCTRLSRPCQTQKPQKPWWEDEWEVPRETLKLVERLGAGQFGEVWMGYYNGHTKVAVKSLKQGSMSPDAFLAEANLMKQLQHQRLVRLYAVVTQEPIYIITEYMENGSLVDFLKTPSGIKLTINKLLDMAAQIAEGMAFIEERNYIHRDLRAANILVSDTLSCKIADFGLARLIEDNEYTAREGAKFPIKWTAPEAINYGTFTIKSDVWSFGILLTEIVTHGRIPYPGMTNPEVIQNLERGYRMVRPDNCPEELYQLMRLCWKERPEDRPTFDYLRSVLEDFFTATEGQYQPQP
In short: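 Readout pairs a europium cryptate-labelled anti-phosphotyrosine antibody with XL665-streptavidin, measured by time-resolved fluorescence. IC50 derived from percent inhibition against untreated controls.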

T1 sequence (P07947 whole entry): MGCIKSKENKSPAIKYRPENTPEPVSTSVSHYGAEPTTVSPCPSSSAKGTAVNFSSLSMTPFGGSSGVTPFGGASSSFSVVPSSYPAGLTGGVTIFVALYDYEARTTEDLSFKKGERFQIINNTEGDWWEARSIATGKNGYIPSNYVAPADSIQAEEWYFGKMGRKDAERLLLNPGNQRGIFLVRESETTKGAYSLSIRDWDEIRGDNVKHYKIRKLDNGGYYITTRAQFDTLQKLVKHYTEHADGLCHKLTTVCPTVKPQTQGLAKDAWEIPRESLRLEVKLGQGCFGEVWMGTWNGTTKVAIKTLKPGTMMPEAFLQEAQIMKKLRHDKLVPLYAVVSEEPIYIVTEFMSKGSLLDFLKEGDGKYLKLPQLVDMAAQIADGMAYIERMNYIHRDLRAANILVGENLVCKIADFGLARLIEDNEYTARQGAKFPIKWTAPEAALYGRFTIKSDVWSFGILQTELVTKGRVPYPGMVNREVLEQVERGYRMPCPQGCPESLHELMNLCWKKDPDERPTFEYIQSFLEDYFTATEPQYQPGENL

Row | IC50 (human Yes1 enzyme) | IC50 (human Src enzyme) | IC50 (human Lck enzyme) | Structure (SMILES)
1 | 1.9 nM | 1100 nM | 480 nM | Cc1cc(-n2ncc(C(=O)c3cc4cc(N5CCOCC5)c(NS(C)(=O)=O)cc4[nH]3)c2N)ccc1Oc1ccccc1F [Example 5-1-157, N-[2-[5-amino-1-[4-(2-fluorophenoxy)-3-methylphenyl]pyrazole-4-carbonyl]-5-morpholin-4-yl-1H-indol-6-yl] methanesulfonamide]
2 | 0.9 nM | 76 nM | 42 nM | Cc1cc(-n2ncc(C(=O)c3cc4cc(N5CCOCC5)c(N5CCN(S(C)(=O)=O)CC5)cc4[nH]3)c2N)ccc1Oc1ccccc1F [Example 5-1-158, [5-amino-1-[4-(2-fluorophenoxy)-3-methylphenyl]pyrazol-4-yl]-[6-(4-methylsulfonylpiperazin-1-yl)-5-morpholin-4-yl-1H-indol-2-yl]methanone]
3 | 1.4 nM | 96 nM | 39 nM | Cc1cc(-n2ncc(C(=O)c3cc4cc(N5CCOCC5)c(N5CCOCC5)cc4[nH]3)c2N)ccc1Oc1ccccc1F [Example 5-1-159, [5-amino-1-[4-(2-fluorophenoxy)-3-methylphenyl]pyrazol-4-yl]-(5,6-dimorpholin-4-yl-1H-indol-2-yl)methanone]
4 | 0.71 nM | 230 nM | 33 nM | Cc1cc(-n2ncc(C(=O)c3cc4cc(N5CCOCC5)c(N5CCOC5=O)cc4[nH]3)c2N)ccc1Oc1ccccc1F [Example 5-1-160, 3-[2-[5-amino-1-[4-(2-fluorophenoxy)-3-methylphenyl]pyrazole-4-carbonyl]-5-morpholin-4-yl-1H-indol-6-yl]-1,3-oxazolidin-2-one]
5 | 2.8 nM | 600 nM | 160 nM | Cc1cc(-n2ncc(C(=O)c3cc4cc(OC(F)F)c(N)cc4[nH]3)c2N)ccc1Oc1ccccc1F [Example 5-1-161, [6-amino-5-(difluoromethoxy)-1H-indol-2-yl]-[5-amino-1-[4-(2-fluorophenoxy)-3-methylphenyl]pyrazol-4-yl]methanone]
6 | 2.1 nM | 480 nM | 120 nM | Cc1cc(-n2ncc(C(=O)c3cc4cc(OCC(F)F)c(N)cc4[nH]3)c2N)ccc1Oc1ccccc1F [Example 5-1-162, [6-amino-5-(2,2-difluoroethoxy)-1H-indol-2-yl]-[5-amino-1-[4-(2-fluorophenoxy)-3-methylphenyl]pyrazol-4-yl]methanone]
7 | 0.64 nM | 59 nM | 7 nM | Cc1cc(-n2ncc(C(=O)c3cc4cc(OC5CCN(C(C)C)CC5)c(N)cc4[nH]3)c2N)ccc1Oc1ccccc1F [Example 5-1-163, (5-amino-1-(4-(2-fluorophenoxy)-3-methylphenyl)-1H-pyrazol-4-yl)(6-amino-5-((1-isopropylpiperidin-4-yl)oxy)-1H-indol-2-yl)methanone]
8 | 1.8 nM | 700 nM | 69 nM | Cc1cc(-n2ncc(C(=O)c3cc4cc(N5CCOCC5)c(N5C(=O)NC(C)(C)C5=O)cc4[nH]3)c2N)ccc1Oc1ccccc1F [Example 5-1-164, 3-[2-[5-amino-1-[4-(2-fluorophenoxy)-3-methylphenyl]pyrazole-4-carbonyl]-5-morpholin-4-yl-1H-indol-6-yl]-5,5-dimethylimidazolidine-2,4-dione]
9 | 1.8 nM | 340 nM | 37 nM | Cc1cc(-n2ncc(C(=O)c3cc4cc(N5CCOCC5)c(N5CCC(N6CCOCC6)CC5)cc4[nH]3)c2N)ccc1Oc1ccccc1F [Example 5-1-165, [5-amino-1-[4-(2-fluorophenoxy)-3-methylphenyl]pyrazol-4-yl]-[5-morpholin-4-yl-6-(4-morpholin-4-ylpiperidin-1-yl)-1H-indol-2-yl] methanone]
10 | 2 nM | 820 nM | 250 nM | Cc1cc(-n2ncc(C(=O)c3cc4cc(OCC(F)F)c(NS(C)(=O)=O)cc4[nH]3)c2N)ccc1Oc1ccccc1F [Example 5-1-166, N-[2-[5-amino-1-[4-(2-fluorophenoxy)-3-methylphenyl]pyrazole-4-carbonyl]-5-(2,2-difluoroethoxy)-1H-indol-6-yl] methanesulfonamide]
11 | 3.6 nM | 2000 nM | 370 nM | Cc1cc(-n2ncc(C(=O)c3cc4cc(OC(F)F)c(NS(C)(=O)=O)cc4[nH]3)c2N)ccc1Oc1ccccc1F [Example 5-1-167, N-[2-[5-amino-1-[4-(2-fluorophenoxy)-3-methylphenyl]pyrazole-4-carbonyl]-5-(difluoromethoxy)-1H-indol-6-yl] methanesulfonamide]
12 | 1.1 nM | 210 nM | 45 nM | Cc1cc(-n2ncc(C(=O)c3cc4cc(OCC(F)F)c(N5CCOC5=O)cc4[nH]3)c2N)ccc1Oc1ccccc1F [Example 5-1-168, 3-[2-[5-amino-1-[4-(2-fluorophenoxy)-3-methylphenyl]pyrazole-4-carbonyl]-5-(2,2-difluoroethoxy)-1H-indol-6-yl]-1,3-oxazolidin-2-one]
13 | 0.88 nM | 100 nM | 46 nM | Cc1cc(-n2ncc(C(=O)c3cc4cc(OCC(F)F)c(N5CCOCC5)cc4[nH]3)c2N)ccc1Oc1ccccc1F [Example 5-1-169, [5-amino-1-[4-(2-fluorophenoxy)-3-methylphenyl]pyrazol-4-yl]-[5-(2,2-difluoroethoxy)-6-morpholin-4-yl-1H-indol-2-yl] methanone]
14 | 1.3 nM | 490 nM | 89 nM | Cc1cc(-n2ncc(C(=O)c3cc4cc(OCC(F)F)c(N5C(=O)NC(C)(C)C5=O)cc4[nH]3)c2N)ccc1Oc1ccccc1F [Example 5-1-170, 3-[2-[5-amino-1-[4-(2-fluorophenoxy)-3-methylphenyl]pyrazole-4-carbonyl]-5-(2,2-difluoroethoxy)-1H-indol-6-yl]-5,5-dimethylimidazolidine-2,4-dione]
15 | 1.1 nM | 79 nM | 49 nM | Cc1cc(-n2ncc(C(=O)c3cc4cc(OCC(F)F)c(N5CCN(S(C)(=O)=O)CC5)cc4[nH]3)c2N)ccc1Oc1ccccc1F [Example 5-1-171, [5-amino-1-[4-(2-fluorophenoxy)-3-methylphenyl]pyrazol-4-yl]-[5-(2,2-difluoroethoxy)-6-(4-methylsulfonylpiperazin-1-yl)-1H-indol-2-yl]methanone]
16 | 0.9 nM | 170 nM | 18 nM | Cc1cc(-n2ncc(C(=O)c3cc4cc(OCC(F)F)c(N5CCC(N6CCOCC6)CC5)cc4[nH]3)c2N)ccc1Oc1ccccc1F [Example 5-1-172, [5-amino-1-[4-(2-fluorophenoxy)-3-methylphenyl]pyrazol-4-yl]-[5-(2,2-difluoroethoxy)-6-(4-morpholin-4-ylpiperidin-1-yl)-1H-indol-2-yl]methanone]
17 | 2.6 nM | 340 nM | 100 nM | Cc1cc(-n2ncc(C(=O)c3cc4cc(OC(F)F)c(N5CCOCC5)cc4[nH]3)c2N)ccc1Oc1ccccc1F [Example 5-1-173, [5-amino-1-[4-(2-fluorophenoxy)-3-methylphenyl]pyrazol-4-yl]-[5-(difluoromethoxy)-6-morpholin-4-yl-1H-indol-2-yl]methanone]
18 | 0.56 nM | 46 nM | 4.5 nM | Cc1cc(-n2ncc(C(=O)c3cc4cc(OC5CCN(C(C)C)CC5)c(N5CCOCC5)cc4[nH]3)c2N)ccc1Oc1ccccc1F [Example 5-1-174, (5-amino-1-(4-(2-fluorophenoxy)-3-methylphenyl)-1H-pyrazol-4-yl)(5-((1-isopropylpiperidin-4-yl)oxy)-6-morpholino-1H-indol-2-yl)methanone]
19 | 2.4 nM | 350 nM | 74 nM | Cc1cc(-n2ncc(C(=O)c3cc4cc(OC(F)F)c(N5CCN(S(C)(=O)=O)CC5)cc4[nH]3)c2N)ccc1Oc1ccccc1F [Example 5-1-175, [5-amino-1-[4-(2-fluorophenoxy)-3-methylphenyl]pyrazol-4-yl]-[5-(difluoromethoxy)-6-(4-methylsulfoNylpiperazin-1-yl)-1H-indol-2-yl]methanone]
20 | 1 nM | 79 nM | 11 nM | Cc1cc(-n2ncc(C(=O)c3cc4cc(OC5CCN(C(C)C)CC5)c(N5CCN(S(C)(=O)=O)CC5)cc4[nH]3)c2N)ccc1Oc1ccccc1F [Example 5-1-176, [5-amino-1-[4-(2-fluorophenoxy)-3-methylphenyl]pyrazol-4-yl]-[6-(4-methylsulfonylpiperazin-1-yl)-5-(1-propan-2-ylpiperidin-4-yl)oxy-1H-indol-2-yl]methanone]
21 | 2.4 nM | 340 nM | 82 nM | Cc1cc(-n2ncc(C(=O)c3cc4cc(OC(F)F)c(N5CCOC5=O)cc4[nH]3)c2N)ccc1Oc1ccccc1F [Example 5-1-177, 3-[2-[5-amino-1-[4-(2-fluorophenoxy)-3-methylphenyl]pyrazole-4-carbonyl]-5-(difluoromethoxy)-1H-indol-6-yl]-1,3-oxazolidin-2-one]
22 | 0.37 nM | 48 nM | 3.4 nM | Cc1cc(-n2ncc(C(=O)c3cc4cc(OC5CCN(C(C)C)CC5)c(N5CCOC5=O)cc4[nH]3)c2N)ccc1Oc1ccccc1F [Example 5-1-178, 3-(2-(5-amino-1-(4-(2-fluorophenoxy)-3-methylphenyl)-1H-pyrazole-4-carbonyl)-5-((1-isopropylpiperidin-4-yl)oxy)-1H-indol-6-yl)oxazolidin-2-one]
23 | 4 nM | 810 nM | 180 nM | Cc1cc(-n2ncc(C(=O)c3cc4cc(OC(F)F)c(N5C(=O)NC(C)(C)C5=O)cc4[nH]3)c2N)ccc1Oc1ccccc1F [Example 5-1-179, 3-[2-[5-amino-1-[4-(2-fluorophenoxy)-3-methylphenyl]pyrazole-4-carbonyl]-5-(difluoromethoxy)-1H-indol-6-yl]-5,5-dimethylimidazolidine-2,4-dione]
